Test [1] has as its target T1, OhLys-kexB (E35A variant used for the ligand complexes) (Opisthocomus hoazin, UniProt Q91159, INS20KR/E54A).
T1 construct: gene LYZ; mature enzyme, 126 residues in wild type, secreted from Aspergillus oryzae; Lys-Arg inserted between Glu1 and Ile2 (uncleaved kexB site), N-terminus EKRIIPRCELV; monomer in asymmetric unit
In words: X-ray crystallography, co-crystallisation. The class given is biochemical. As to conditions: added as chitohexaose; hydrolysed by residual activity, so only sugars in -1 to -3 (weak -4) seen; intact hexamer not observed; mature numbering.

Test [2] has as its target T1, OhLys-kexB (E35A variant used for the ligand complexes). Kind of test: X-ray crystallography, co-crystallisation. Type of test: binding. The note with it: density essentially identical to the chitohexaose co-crystal, subsites -1 to -3 (poorly ordered -4); not fully refined; mature numbering.

Results on two compounds are retold here after publication PMC6887759, “The C-Type Lysozyme from the upper Gastrointestinal Tract of Opisthocomus hoatzin, the Stinkbird” (International Journal of Molecular Sciences, 2019).

T1 sequence (Q91159 other isoform, or with tags, fused parts or gaps INS20KR/E54A): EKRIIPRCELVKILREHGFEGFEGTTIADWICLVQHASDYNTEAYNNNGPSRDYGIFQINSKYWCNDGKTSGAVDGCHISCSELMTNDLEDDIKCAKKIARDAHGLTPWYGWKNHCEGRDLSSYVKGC

For `CC(=O)N[C@H]1[C@H](O[C@H]2[C@H](O)[C@@H](NC(C)=O)[C@H](O[C@H]3[C@H](O)[C@@H](NC(C)=O)C(O)O[C@@H]3CO)O[C@@H]2CO)O[C@H](CO)[C@@H](O[C@@H]2O[C@H](CO)[C@@H](O[C@@H]3O[C@H](CO)[C@@H](O[C@@H]4O[C@H](CO)[C@@H](O)[C@H](O)[C@H]4NC(C)=O)[C@H](O)[C@H]3NC(C)=O)[C@H](O)[C@H]2NC(C)=O)[C@@H]1O` (some centres unmarked) [chitohexaose], the “X-ray crystallography, co-crystallisation” value in test [1] is “hydrolyse; at the high protein concentrations of a prolonged crystallization, the chitohexaose substrate”.
On to `CC(=O)N[C@H]1[C@H](O[C@H]2[C@H](O)[C@@H](NC(C)=O)C(O)O[C@@H]2CO)O[C@H](CO)[C@@H](O[C@@H]2O[C@H](CO)[C@@H](O[C@@H]3O[C@H](CO)[C@@H](O)[C@H](O)[C@H]3NC(C)=O)[C@H](O)[C@H]2NC(C)=O)[C@@H]1O` (some centres unmarked) [chitotetraose], for which the “X-ray crystallography, co-crystallisation” value in test [2] is “The density for the chitotetraose ligand is essentially identical to this”.
